Results as given in ChEMBL document CHEMBL1147512, “Development of subtype-selective ligands as antagonists at nicotinic receptors mediating nicotine-evoked dopamine release” (Bioorg Med Chem Lett, 2004).

What was measured:
[1] = target: T1, Neuronal acetylcholine receptor subunit alpha-7 (Rattus norvegicus, UniProt Q05941); experiment: Inhibition of [3H]-MLA binding to Nicotinic acetylcholine receptor alpha7 in rat brain; format: tissue-based
[2] = target: T2, Neuronal acetylcholine receptor; alpha4/beta2 (Rattus norvegicus, UniProt P09483+P12390); experiment: Inhibition of [3H]nicotine binding to Nicotinic acetylcholine receptor alpha4-beta2 in rat brain.; format: tissue-based
[3] = target: T1, Neuronal acetylcholine receptor subunit alpha-7; experiment: Inhibition of [3H]-MLA binding to Nicotinic acetylcholine receptor alpha-7 in rat brain.; format: tissue-based
[4] = target: T2, Neuronal acetylcholine receptor; alpha4/beta2; experiment: Inhibitory activity against nAChR mediated nicotine-evoked [3H]DA overflow using rat striatal slices; format: functional
[5] = target: T2, Neuronal acetylcholine receptor; alpha4/beta2; experiment: Inhibition of [3H]nicotine binding to Nicotinic acetylcholine receptor alpha4-beta2 in rat brain; format: tissue-based
Rattus norvegicus = organism: Rattus norvegicus; experiment: Inhibitory activity against nAChR mediated nicotine-evoked [3H]DA overflow using rat striatal slices; Not active; format: functional, organism-based

T2 sequence (P09483 whole entry): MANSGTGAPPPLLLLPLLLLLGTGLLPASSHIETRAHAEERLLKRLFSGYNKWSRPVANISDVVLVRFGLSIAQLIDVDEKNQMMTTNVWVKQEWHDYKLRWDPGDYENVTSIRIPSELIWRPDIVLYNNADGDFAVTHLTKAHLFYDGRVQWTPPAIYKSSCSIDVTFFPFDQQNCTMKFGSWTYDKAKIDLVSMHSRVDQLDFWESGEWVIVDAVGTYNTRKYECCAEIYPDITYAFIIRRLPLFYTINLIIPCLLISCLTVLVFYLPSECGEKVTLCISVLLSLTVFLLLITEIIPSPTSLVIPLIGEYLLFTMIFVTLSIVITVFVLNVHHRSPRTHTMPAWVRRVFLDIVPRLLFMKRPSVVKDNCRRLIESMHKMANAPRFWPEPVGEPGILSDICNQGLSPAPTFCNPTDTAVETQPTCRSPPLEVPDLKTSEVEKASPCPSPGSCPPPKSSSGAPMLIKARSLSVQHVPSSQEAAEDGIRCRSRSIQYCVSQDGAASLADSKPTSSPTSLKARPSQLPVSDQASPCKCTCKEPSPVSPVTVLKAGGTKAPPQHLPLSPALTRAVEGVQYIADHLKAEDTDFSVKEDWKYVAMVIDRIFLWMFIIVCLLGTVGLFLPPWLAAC
T2 sequence (P12390 whole entry): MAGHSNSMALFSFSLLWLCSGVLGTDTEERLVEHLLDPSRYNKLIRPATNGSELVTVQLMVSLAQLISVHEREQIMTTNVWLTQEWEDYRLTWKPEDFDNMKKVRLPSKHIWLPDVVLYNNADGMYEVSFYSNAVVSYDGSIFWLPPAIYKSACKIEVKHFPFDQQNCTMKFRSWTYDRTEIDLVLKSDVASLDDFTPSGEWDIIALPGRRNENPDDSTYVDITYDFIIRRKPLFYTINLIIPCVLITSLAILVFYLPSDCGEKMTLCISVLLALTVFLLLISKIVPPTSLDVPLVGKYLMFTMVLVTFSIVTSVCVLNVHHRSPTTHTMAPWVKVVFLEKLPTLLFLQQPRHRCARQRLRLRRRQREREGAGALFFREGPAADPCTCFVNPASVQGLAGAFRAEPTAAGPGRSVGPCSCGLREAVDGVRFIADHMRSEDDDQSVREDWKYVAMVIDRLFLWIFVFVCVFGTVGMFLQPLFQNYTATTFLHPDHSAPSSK
T1 sequence (Q05941 whole entry): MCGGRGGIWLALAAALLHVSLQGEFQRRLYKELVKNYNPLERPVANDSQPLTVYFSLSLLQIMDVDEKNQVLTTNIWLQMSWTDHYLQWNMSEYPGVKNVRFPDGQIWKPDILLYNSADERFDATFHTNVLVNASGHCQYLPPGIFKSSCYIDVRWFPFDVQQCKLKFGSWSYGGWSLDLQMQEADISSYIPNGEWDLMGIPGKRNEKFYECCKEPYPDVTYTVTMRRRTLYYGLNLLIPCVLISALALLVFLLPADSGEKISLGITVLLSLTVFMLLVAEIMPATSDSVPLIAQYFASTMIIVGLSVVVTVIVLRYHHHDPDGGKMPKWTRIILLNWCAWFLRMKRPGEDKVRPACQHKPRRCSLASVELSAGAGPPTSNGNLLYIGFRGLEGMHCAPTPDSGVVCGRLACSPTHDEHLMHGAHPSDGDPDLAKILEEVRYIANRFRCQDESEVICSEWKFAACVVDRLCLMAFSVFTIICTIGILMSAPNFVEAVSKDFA

`CCCCCCCC[n+]1cccc([C@@H]2CCCN2C)c1` was tested, and the Ki [1] was 12000 nM.

In the case of `CCCCCCCCCCCC[n+]1ccc2c(c1)[C@H]1[C@@H](CC2)CCN1C.[I-]`, the Ki [2] is reported as “Not Active”, the Ki [3] is reported as “Not Active” and the IC50 [4] is reported as 220 nM.

For `CCCCCCCC[n+]1ccc2c(c1)[C@H]1[C@@H](CC2)CCN1C.[I-]`, the Ki [2] was “Not Active”, the Ki [3] was “Not Active” and the IC50 [4] was 80 nM.

With `CCCCCCCC[n+]1cccc2c1CC[C@@H]1CCN(C)[C@H]21.[I-]` the Ki [2] was “Not Active”, the Ki [3] was “Not Active” and the IC50 [4] was 40 nM.

With `CCCCCCCCCCC[n+]1cccc2c1CC[C@@H]1CCN(C)[C@H]21.[I-]` the Ki [2] was “Not Active”, the Ki [3] was “Not Active” and the IC50 [4] was 40 nM.

In the case of `CCCCCCCCCC[n+]1cccc2c1CC[C@@H]1CCN(C)[C@H]21.[I-]`, the Ki [2] is reported as “Not Active”, the Ki [3] is reported as “Not Active” and the IC50 [4] is reported as 30 nM.

With `CCCCCCCCC[n+]1ccc2c(c1)[C@H]1[C@@H](CC2)CCN1C.[I-]` the Ki [2] was “Not Active”, the Ki [3] was “Not Active” and the IC50 [4] was 660 nM.

For `CCCCCCCCCCC[n+]1ccc2c(c1)[C@H]1[C@@H](CC2)CCN1C.[I-]`, the Ki [2] was “Not Active”, the Ki [3] was “Not Active” and the IC50 [4] was 40 nM.

With `CCCCCCCCCCCC[n+]1ccccc1.[I-]` the Ki [2] was “Not Active”, the Ki [3] was “Not Active” and the IC50 [4] was 260 nM.

In the case of `CCCCCCCCC[n+]1cccc2c1CC[C@@H]1CCN(C)[C@H]21.[I-]`, the Ki [2] is reported as “Not Active”, the Ki [3] is reported as “Not Active” and the IC50 [4] is reported as 310 nM.

Compound `c1cc[n+](CCCCCCCCCCCCCC[n+]2ccccc2)cc1` has a Ki [1] of 33000 nM, a Ki [5] of 9150 nM and an IC50 [4] of 1000 nM.

With `CN1CCC[C@H]1c1ccc[n+](CCCCCCCCCCCCCC[n+]2cccc([C@@H]3CCCN3C)c2)c1.[Br-].[Br-]` the Ki [3] was “Not Active”, the Ki [5] was 1950 nM and the IC50 [4] was 170 nM.

With `CCCCCCCCCCCCCCCCCCCC[n+]1ccccc1.[Br-]` the Ki [2] was “Not Active”, the Ki [3] was “Not Active” and the IC50 [4] was 120 nM.

In the case of `CCCCCCCCCCCC[n+]1cccc2c1CC[C@@H]1CCN(C)[C@H]21.[I-]`, the Ki [2] is reported as “Not Active”, the Ki [3] is reported as “Not Active” and the IC50 (Rattus norvegicus) is reported as “Not Active”.

With `CCCCCCCCCC[n+]1ccccc1.[I-]` the Ki [3] was “Not Active”, the Ki [5] was 17000 nM and the IC50 [4] was 130 nM.

In the case of `CCCCCCCCCCCCCCC[n+]1ccccc1.[Br-]`, the Ki [3] is reported as “Not Active”, the Ki [5] is reported as 38000 nM and the IC50 [4] is reported as 320 nM.

`CCCCCCCCCCCC[n+]1cccc([C@@H]2CCCN2C)c1.[I-]` was tested, and the Ki [3] was “Not Active”, the Ki [5] was 140 nM and the IC50 [4] was 9 nM.

In the case of `CCCCCCCCCC[n+]1cccc([C@@H]2CCCN2C)c1.[I-]`, the Ki [3] is reported as “Not Active”, the Ki [5] is reported as 90 nM and the IC50 (Rattus norvegicus) is reported as “Not Active”.

With `CCCCCCCCCC[n+]1ccc2c(c1)[C@H]1[C@@H](CC2)CCN1C.[I-]` the Ki [2] was “Not Active”, the Ki [3] was “Not Active” and the IC50 [4] was 580 nM.
